Measurements as given in patent US20260137642A1 (CANCER PREVENTION PHARMACEUTICALS, INC., priority 2021, published 2026).

What was measured:
β cell function = details: mouse models including the NOD mouse; cited from earlier work
[1] = Phase I/II trial in new onset T1D: adverse events judged possibly or probably related to drug; format: in vivo, human; details: for Adverse events possibly or probably related to drug: Abdominal Pain / Adverse events possibly or probably related to drug: Congestion / Adverse events possibly or probably related to drug: Cough / Adverse events possibly or probably related to drug: Diarrhea / Adverse events possibly or probably related to drug: Dizziness / Adverse events possibly or probably related to drug: Gastrointestinal (Total) / Adverse events possibly or probably related to drug: Hematologic, Anemia / Adverse events possibly or probably related to drug: Hot flashes associated with viral illness / Adverse events possibly or probably related to drug: Nausea / Adverse events possibly or probably related to drug: Nausea with IV placement / Adverse events possibly or probably related to drug: Neurologic, Headache / Adverse events possibly or probably related to drug: Other Viral Illness / Adverse events possibly or probably related to drug: Other infectious/immune, Pump site infection / Adverse events possibly or probably related to drug: Other, Hypoglycemia / Adverse events possibly or probably related to drug: Other, Urticaria/anaphylaxis / Adverse events possibly or probably related to drug: URI / Adverse events possibly or probably related to drug: Vomiting / Adverse events possibly or probably related to drug: Hematologic, Grade 1 Neutropenia: daily oral; for Adverse events possibly or probably related to drug: Hematologic, Grade 1 Neutropenia: neutrophil count < lower limit of normal but above 1500/mm^3
Description: The primary efficacy measure was changes in pro-insulin to C-peptide ratios as a marker of β cell ER stress. The secondary objectives of the study were to elucidate the relationship between primary dose and markers of endoplasmic reticulum (ER) stress, polyamine concentrations, glycemic, and immunologic outcomes in persons with new onset T1D, and to characterize the dietary polyamine intake and urinary polyamine excretion of persons with recent-onset T1D. Secondary efficacy measures included other biomarkers of β cell stress, stimulated C-peptide values, and changes in T-cell subsets. This study was double-blind, placebo-controlled, 2:1 random assigned, phase I/II clinic trial for individuals with type 1 diabetes. The blinded dose-ranging study enrolled persons with new onset T1D with documented continued residual C-peptide production. […] After a 3 month wash-out period, the durability of effect was assessed. […] Males and females 12-40 years of age with a clinical diagnosis of T1D within 2-8 months of the time of visit 2; 2. […] Positive for any one of the following diabetes-related autoantibodies (mIAA, GADA, IA-2A, or ZnT8A); 4. Treatment naïve of any immunomodulatory agent; 5. […] Presence of any psychiatric disorder that will affect ability to participate in study, including psychiatric impairment or current use of anti-psychotic medication; 3. […] Chronic illness known to affect glucose metabolism (e.g. Cushing syndrome, polycystic ovarian disorder, cystic fibrosis) or taking medications that affect glucose metabolism (e.g. steroids, metformin); 5. Inability to swallow pills; 6. Hematologic abnormalities at screening (anemia, leukopenia (particularly neutropenia), or thrombocytopenia); 7. […] Female participants of child-bearing age must not be pregnant and agree to use an effective form of birth control or be abstinent during the study period; 9. BMI >95% for age and sex. […] The enrollment cohorts were as follows: […] [table] […] Possible drug-related expected AEs included mild-moderate nausea/vomiting/abdominal pain and diarrhea, moderate headache, upper respiratory infections, a pump site infection, and mild anemia. […] Adverse events judges by masked study investigators as possibly or probably related to drug are showing in Table 3.

RINm5F insulinoma cells = details: cited from earlier work
[2] = system: APC-dependent intestinal tumorigenesis; details: mice; cited from earlier work
T cells = details: mice; cited from earlier work
urinary polyamines = experiment: Phase I/II trial in new onset T1D: urinary polyamines (first morning urine, HPLC); format: in vivo, human; details: 3 months
Method: This study was double-blind, placebo-controlled, 2:1 random assigned, phase I/II clinic trial for individuals with type 1 diabetes. The blinded dose-ranging study enrolled persons with new onset T1D with documented continued residual C-peptide production. […] After a 3 month wash-out period, the durability of effect was assessed. [table]

## NCCCC(N)(C(=O)O)C(F)F (stereo not drawn) [eflornithine, 2,5-diamino-2-(difluoromethyl) pentanoic acid]
β cell function
  β cell function and diabetes onset: preserves β cell function and delays diabetes onset
[1]; 125 mg/m^2 (n = 6)
  Adverse events possibly or probably related to drug: Abdominal Pain: 1
  Adverse events possibly or probably related to drug: Congestion: 0
  Adverse events possibly or probably related to drug: Cough: 0
  Adverse events possibly or probably related to drug: Diarrhea: 0
  Adverse events possibly or probably related to drug: Dizziness: 0
  Adverse events possibly or probably related to drug: Gastrointestinal (Total): 1
  Adverse events possibly or probably related to drug: Hematologic, Anemia: 0
  Adverse events possibly or probably related to drug: Hot flashes associated with viral illness: 0
  Adverse events possibly or probably related to drug: Nausea: 0
  Adverse events possibly or probably related to drug: Nausea with IV placement: 0
  Adverse events possibly or probably related to drug: Neurologic, Headache: 1
  Adverse events possibly or probably related to drug: Other Viral Illness: 0
  Adverse events possibly or probably related to drug: Other infectious/immune, Pump site infection: 0
  Adverse events possibly or probably related to drug: Other, Hypoglycemia: 0
  Adverse events possibly or probably related to drug: Other, Urticaria/anaphylaxis: 0
  Adverse events possibly or probably related to drug: URI: 0
  Adverse events possibly or probably related to drug: Vomiting: 1
  Adverse events possibly or probably related to drug: Hematologic, Grade 1 Neutropenia: 1
[1]; 250 mg/m^2 (n = 6)
  Adverse events possibly or probably related to drug: Abdominal Pain: 0
  Adverse events possibly or probably related to drug: Congestion: 0
  Adverse events possibly or probably related to drug: Cough: 0
  Adverse events possibly or probably related to drug: Diarrhea: 1
  Adverse events possibly or probably related to drug: Dizziness: 0
  Adverse events possibly or probably related to drug: Gastrointestinal (Total): 1
  Adverse events possibly or probably related to drug: Hematologic, Anemia: 0
  Adverse events possibly or probably related to drug: Hot flashes associated with viral illness: 0
  Adverse events possibly or probably related to drug: Nausea: 0
  Adverse events possibly or probably related to drug: Nausea with IV placement: 0
  Adverse events possibly or probably related to drug: Neurologic, Headache: 0
  Adverse events possibly or probably related to drug: Other Viral Illness: 0
  Adverse events possibly or probably related to drug: Other infectious/immune, Pump site infection: 0
  Adverse events possibly or probably related to drug: Other, Hypoglycemia: 0
  Adverse events possibly or probably related to drug: Other, Urticaria/anaphylaxis: 0
  Adverse events possibly or probably related to drug: URI: 0
  Adverse events possibly or probably related to drug: Vomiting: 0
  Adverse events possibly or probably related to drug: Hematologic, Grade 1 Neutropenia: 0
[1]; 500 mg/m^2 (n = 6)
  Adverse events possibly or probably related to drug: Abdominal Pain: 0
  Adverse events possibly or probably related to drug: Congestion: 0
  Adverse events possibly or probably related to drug: Cough: 0
  Adverse events possibly or probably related to drug: Diarrhea: 0
  Adverse events possibly or probably related to drug: Dizziness: 0
  Adverse events possibly or probably related to drug: Gastrointestinal (Total): 0
  Adverse events possibly or probably related to drug: Hematologic, Anemia: 0
  Adverse events possibly or probably related to drug: Hot flashes associated with viral illness: 0
  Adverse events possibly or probably related to drug: Nausea: 0
  Adverse events possibly or probably related to drug: Nausea with IV placement: 0
  Adverse events possibly or probably related to drug: Neurologic, Headache: 0
  Adverse events possibly or probably related to drug: Other Viral Illness: 0
  Adverse events possibly or probably related to drug: Other infectious/immune, Pump site infection: 0
  Adverse events possibly or probably related to drug: Other, Hypoglycemia: 1
  Adverse events possibly or probably related to drug: Other, Urticaria/anaphylaxis: 0
  Adverse events possibly or probably related to drug: URI: 0
  Adverse events possibly or probably related to drug: Vomiting: 0
  Adverse events possibly or probably related to drug: Hematologic, Grade 1 Neutropenia: 0
[1]; 750 mg/m^2 (n = 7)
  Adverse events possibly or probably related to drug: Abdominal Pain: 2
  Adverse events possibly or probably related to drug: Congestion: 2
  Adverse events possibly or probably related to drug: Cough: 0
  Adverse events possibly or probably related to drug: Diarrhea: 0
  Adverse events possibly or probably related to drug: Dizziness: 2
  Adverse events possibly or probably related to drug: Gastrointestinal (Total): 5
  Adverse events possibly or probably related to drug: Hematologic, Anemia: 1
  Adverse events possibly or probably related to drug: Hot flashes associated with viral illness: 0
  Adverse events possibly or probably related to drug: Nausea: 3
  Adverse events possibly or probably related to drug: Nausea with IV placement: 1
  Adverse events possibly or probably related to drug: Neurologic, Headache: 0
  Adverse events possibly or probably related to drug: Other Viral Illness: 1
  Adverse events possibly or probably related to drug: Other infectious/immune, Pump site infection: 0
  Adverse events possibly or probably related to drug: Other, Hypoglycemia: 0
  Adverse events possibly or probably related to drug: Other, Urticaria/anaphylaxis: 1
  Adverse events possibly or probably related to drug: URI: 2
  Adverse events possibly or probably related to drug: Vomiting: 0
  Adverse events possibly or probably related to drug: Hematologic, Grade 1 Neutropenia: 0
[1]; 1000 mg/m^2 (n = 6)
  Adverse events possibly or probably related to drug: Abdominal Pain: 1
  Adverse events possibly or probably related to drug: Congestion: 1
  Adverse events possibly or probably related to drug: Cough: 1
  Adverse events possibly or probably related to drug: Diarrhea: 0
  Adverse events possibly or probably related to drug: Dizziness: 0
  Adverse events possibly or probably related to drug: Gastrointestinal (Total): 2
  Adverse events possibly or probably related to drug: Hematologic, Anemia: 2
  Adverse events possibly or probably related to drug: Hot flashes associated with viral illness: 1
  Adverse events possibly or probably related to drug: Nausea: 1
  Adverse events possibly or probably related to drug: Nausea with IV placement: 0
  Adverse events possibly or probably related to drug: Neurologic, Headache: 2
  Adverse events possibly or probably related to drug: Other Viral Illness: 0
  Adverse events possibly or probably related to drug: Other infectious/immune, Pump site infection: 1
  Adverse events possibly or probably related to drug: Other, Hypoglycemia: 0
  Adverse events possibly or probably related to drug: Other, Urticaria/anaphylaxis: 0
  Adverse events possibly or probably related to drug: URI: 2
  Adverse events possibly or probably related to drug: Vomiting: 0
  Adverse events possibly or probably related to drug: Hematologic, Grade 1 Neutropenia: 0
[1]; 3-month course of oral eflornithine, children and adults with recent-onset T1D
  Tolerability: well tolerated with a favorable AE profile
[1]; daily oral doses of 125, 250, 500, 750, and 1000 mg/m^2, drug or placebo
  Severity of adverse events noted: Mild and moderate AEs
[1]; individuals on active drug, daily oral doses of 125, 250, 500, 750, and 1000 mg/m^2
  Unexpected drug-related effects: No unexpected effects judged related to drug
RINm5F insulinoma cells
  Insulin content and secretion: improves insulin content and secretion
[2]
  APC-dependent intestinal tumorigenesis: decrease APC-dependent intestinal tumorigenesis
T cells
  Effect on T cells: deplete T cells
Urinary polyamines; 125-1000 mg/m^2
  Change in urinary polyamines with increasing drug dose across groups: Decreases in urinary polyamines
Urinary polyamines; Drug Dose 125
  3-month urinary Decarboxylated AdoMet, Least Square Means: 133.0 µmol/g
  3-month urinary Putrescine, Least Square Means: 127.9 µmol/g
Urinary polyamines; Drug Dose 250
  3-month urinary Decarboxylated AdoMet, Least Square Means: 87.7 µmol/g
  3-month urinary Putrescine, Least Square Means: 78.0 µmol/g
Urinary polyamines; Drug Dose 500
  3-month urinary Decarboxylated AdoMet, Least Square Means: 114.3 µmol/g
  3-month urinary Putrescine, Least Square Means: 41.8 µmol/g
Urinary polyamines; Drug Dose 750
  3-month urinary Decarboxylated AdoMet, Least Square Means: 116.0 µmol/g
  3-month urinary Putrescine, Least Square Means: 56.6 µmol/g
Urinary polyamines; Drug Dose 1000
  3-month urinary Decarboxylated AdoMet, Least Square Means: 165.7 µmol/g
  3-month urinary Putrescine, Least Square Means: 35.7 µmol/g
